Data on six compounds can be found in ChEMBL document CHEMBL1201862, “PubChem BioAssay data set” (2004).

The source made the active and inactive calls.

Experiment [1] deals with T1, Coagulation factor XII (Homo sapiens, UniProt P00748).
T1 sequence (P00748 whole entry): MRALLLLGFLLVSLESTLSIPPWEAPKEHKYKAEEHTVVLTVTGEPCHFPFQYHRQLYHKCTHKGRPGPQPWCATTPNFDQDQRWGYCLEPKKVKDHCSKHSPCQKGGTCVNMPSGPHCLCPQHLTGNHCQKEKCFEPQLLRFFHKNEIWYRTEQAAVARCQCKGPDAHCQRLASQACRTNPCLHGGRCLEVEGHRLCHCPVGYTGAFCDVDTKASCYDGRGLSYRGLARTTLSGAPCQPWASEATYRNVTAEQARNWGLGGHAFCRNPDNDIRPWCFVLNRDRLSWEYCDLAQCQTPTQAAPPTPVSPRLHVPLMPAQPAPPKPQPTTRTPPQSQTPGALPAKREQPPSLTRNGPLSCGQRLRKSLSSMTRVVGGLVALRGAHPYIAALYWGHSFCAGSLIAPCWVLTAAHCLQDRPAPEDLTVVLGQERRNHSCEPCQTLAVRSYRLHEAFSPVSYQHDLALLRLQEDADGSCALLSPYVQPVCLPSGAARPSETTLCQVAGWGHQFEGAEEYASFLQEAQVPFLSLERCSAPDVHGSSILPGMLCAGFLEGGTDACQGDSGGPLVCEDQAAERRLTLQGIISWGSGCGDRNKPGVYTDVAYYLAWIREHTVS
The class given is functional.

The target in experiment [2] is Cytochrome P450 2D6 (Homo sapiens, UniProt P10635).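 Further: CYP2D6 member of a cytochrome P450 panel assay.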
Sequence of Cytochrome P450 2D6 (P10635 whole entry): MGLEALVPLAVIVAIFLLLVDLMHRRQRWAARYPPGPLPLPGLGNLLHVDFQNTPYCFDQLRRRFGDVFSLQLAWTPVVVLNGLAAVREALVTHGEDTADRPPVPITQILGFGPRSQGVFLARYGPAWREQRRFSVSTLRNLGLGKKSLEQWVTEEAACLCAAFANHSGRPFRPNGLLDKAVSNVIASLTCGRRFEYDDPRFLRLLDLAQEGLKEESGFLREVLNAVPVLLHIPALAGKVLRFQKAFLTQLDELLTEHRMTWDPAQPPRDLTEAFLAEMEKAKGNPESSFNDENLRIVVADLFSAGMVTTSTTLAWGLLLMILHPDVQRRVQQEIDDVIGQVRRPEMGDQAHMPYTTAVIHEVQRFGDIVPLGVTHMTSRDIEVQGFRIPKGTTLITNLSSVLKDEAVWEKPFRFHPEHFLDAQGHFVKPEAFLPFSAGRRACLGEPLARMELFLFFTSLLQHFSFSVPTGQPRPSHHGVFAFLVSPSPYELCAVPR
Experiment [3] has as its system Streptococcus sp. 'group A'. The experiment is described as follows: growth inhibition of control SK(-) GAS strain, dose response, counter-screen for streptokinase expression inhibitor project, luminescence, kanamycin, BacTiterGlo, confirmation (AID 1900). The class given is functional, organism-based. For orientation: The purpose of a counterscreen is to sort out artefacts and off-target activity.

Experiment [4] addresses T2, Kappa-type opioid receptor (Homo sapiens, UniProt P41145). The class given is functional.
Experiment [5] has as its target T3, Beta-galactosidase (Escherichia coli, UniProt Q8VNN2). The class given is functional.
Experiment [6] concerns the target T2, Kappa-type opioid receptor. The class given is functional. This is another data set of the same source.
Experiment [7] deals with Streptococcus. In words: Group A Streptococcus viability loss, dose response, counter-screen for streptokinase expression inhibitor project, luminescence, BacTiterGlo (AID 1915).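 Further: potency for reduction of bacterial viability or growth.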 The class given is functional, organism-based.
The target in experiment [8] is T3, Beta-galactosidase. The experiment is described as follows: beta-galactosidase enzyme inhibitors and activators, dose response, artefact control for CCR6 antagonist project, biochemical, E. coli enzyme, set 3 (AID 504712). The class given is functional.
In experiment [9] the target is T4, Exodeoxyribonuclease V (Escherichia coli (strain K12), UniProt P04993+P07648+P08394).
T4 sequence (P04993 whole entry): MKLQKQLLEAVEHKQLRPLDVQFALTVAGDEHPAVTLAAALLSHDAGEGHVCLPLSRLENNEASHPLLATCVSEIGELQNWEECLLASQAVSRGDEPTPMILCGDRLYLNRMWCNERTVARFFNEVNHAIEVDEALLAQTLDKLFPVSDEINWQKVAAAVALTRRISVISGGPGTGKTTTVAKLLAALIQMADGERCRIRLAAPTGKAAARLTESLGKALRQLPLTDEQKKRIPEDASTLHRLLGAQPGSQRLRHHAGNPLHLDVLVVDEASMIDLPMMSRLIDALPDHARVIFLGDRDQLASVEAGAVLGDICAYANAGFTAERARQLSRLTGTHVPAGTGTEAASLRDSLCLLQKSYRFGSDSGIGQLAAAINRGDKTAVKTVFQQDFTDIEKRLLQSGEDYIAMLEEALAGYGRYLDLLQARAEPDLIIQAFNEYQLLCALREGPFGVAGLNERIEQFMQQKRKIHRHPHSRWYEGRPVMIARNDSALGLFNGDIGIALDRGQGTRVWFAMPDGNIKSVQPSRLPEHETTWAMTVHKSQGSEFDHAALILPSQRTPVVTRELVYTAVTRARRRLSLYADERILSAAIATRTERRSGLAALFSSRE
T4 sequence (P07648 whole entry): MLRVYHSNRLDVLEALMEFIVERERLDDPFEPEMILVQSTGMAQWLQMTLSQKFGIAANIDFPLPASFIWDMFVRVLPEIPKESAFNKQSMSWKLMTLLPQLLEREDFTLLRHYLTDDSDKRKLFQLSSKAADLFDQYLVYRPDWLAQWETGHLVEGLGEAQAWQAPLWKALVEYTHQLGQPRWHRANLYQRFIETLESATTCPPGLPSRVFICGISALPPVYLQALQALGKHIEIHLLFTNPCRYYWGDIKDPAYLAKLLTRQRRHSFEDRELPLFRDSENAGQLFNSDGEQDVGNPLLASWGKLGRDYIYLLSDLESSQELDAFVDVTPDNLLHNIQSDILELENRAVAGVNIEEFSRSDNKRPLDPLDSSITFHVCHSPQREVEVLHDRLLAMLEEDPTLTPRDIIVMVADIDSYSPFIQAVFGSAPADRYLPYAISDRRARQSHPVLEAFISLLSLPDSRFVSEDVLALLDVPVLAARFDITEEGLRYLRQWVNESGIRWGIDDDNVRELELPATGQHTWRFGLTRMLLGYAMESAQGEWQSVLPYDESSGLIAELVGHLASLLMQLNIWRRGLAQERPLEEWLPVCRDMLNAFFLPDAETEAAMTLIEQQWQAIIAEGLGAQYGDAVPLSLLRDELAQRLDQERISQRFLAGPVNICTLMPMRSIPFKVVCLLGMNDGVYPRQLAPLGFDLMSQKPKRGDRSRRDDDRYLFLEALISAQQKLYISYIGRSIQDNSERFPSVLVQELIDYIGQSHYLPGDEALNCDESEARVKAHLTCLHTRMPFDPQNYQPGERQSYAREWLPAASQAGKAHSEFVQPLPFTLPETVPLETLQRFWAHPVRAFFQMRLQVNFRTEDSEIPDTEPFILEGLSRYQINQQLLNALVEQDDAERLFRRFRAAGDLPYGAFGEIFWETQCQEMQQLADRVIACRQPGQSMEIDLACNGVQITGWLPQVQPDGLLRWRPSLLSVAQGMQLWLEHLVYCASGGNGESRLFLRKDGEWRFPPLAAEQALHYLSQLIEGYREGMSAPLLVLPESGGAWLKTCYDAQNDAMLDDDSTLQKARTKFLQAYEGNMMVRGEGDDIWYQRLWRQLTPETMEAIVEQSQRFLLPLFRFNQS
T4 sequence (P08394 whole entry): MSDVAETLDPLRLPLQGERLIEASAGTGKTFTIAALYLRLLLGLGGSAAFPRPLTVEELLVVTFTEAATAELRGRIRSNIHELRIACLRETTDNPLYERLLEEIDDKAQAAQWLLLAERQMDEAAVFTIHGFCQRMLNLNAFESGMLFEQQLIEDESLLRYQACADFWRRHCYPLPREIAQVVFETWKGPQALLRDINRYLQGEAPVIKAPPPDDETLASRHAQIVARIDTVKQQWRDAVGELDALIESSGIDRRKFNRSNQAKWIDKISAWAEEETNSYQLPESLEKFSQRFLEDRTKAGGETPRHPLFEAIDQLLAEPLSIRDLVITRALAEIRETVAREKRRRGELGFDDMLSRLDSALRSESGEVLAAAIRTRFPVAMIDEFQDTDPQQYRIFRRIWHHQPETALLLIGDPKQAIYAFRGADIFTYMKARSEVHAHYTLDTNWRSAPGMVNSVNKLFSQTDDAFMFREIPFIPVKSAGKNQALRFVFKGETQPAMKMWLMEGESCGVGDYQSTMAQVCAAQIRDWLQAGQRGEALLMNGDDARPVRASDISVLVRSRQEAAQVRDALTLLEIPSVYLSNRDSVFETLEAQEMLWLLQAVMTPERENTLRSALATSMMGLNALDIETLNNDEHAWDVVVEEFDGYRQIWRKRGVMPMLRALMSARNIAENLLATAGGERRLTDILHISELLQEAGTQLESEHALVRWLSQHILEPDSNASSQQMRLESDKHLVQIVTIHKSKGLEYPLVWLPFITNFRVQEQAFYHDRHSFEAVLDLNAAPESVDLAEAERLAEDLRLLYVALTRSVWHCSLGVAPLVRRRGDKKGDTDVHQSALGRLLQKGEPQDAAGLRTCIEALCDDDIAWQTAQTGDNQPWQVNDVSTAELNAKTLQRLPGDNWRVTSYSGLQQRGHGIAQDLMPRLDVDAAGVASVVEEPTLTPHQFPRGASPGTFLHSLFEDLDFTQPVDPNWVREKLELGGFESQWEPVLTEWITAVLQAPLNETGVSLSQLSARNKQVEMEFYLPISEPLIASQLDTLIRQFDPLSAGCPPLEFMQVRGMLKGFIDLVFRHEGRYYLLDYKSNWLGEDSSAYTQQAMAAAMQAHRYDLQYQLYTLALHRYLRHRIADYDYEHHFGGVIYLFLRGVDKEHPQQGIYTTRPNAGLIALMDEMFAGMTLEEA
The experiment is described as follows: E. coli RecBCD inhibitors, dose response, counter-screen for AddAB inhibitor project, absorbance, V66 E. coli, mutant T4 phage (AID 492957). The class given is functional, cell-based, Escherichia coli str. K-12 substr. MG1655.

The nature of experiment [10]: Counterscreen for AddAB inhibitors: absorbance-based bacterial cell-based high throughput dose response assay for inhibitors of bacterial viability. [Related pubchem assays (depositor defined):AID435030, AID449728, AID449731, AID488942, AID488955, AID488956]. The class given is functional.
Experiment [11] concerns HEK293. In words: inhibitors of LMP1-driven NF-kB reporter, dose response, cell-based, HEK293, luciferase, cherry-pick (AID 588343). The class given is functional. The note with it: Homo sapiens.
Experiment [12] addresses T5, Calpain-2 catalytic subunit (Sus scrofa, UniProt P43367).
T5 sequence (P43367 whole entry): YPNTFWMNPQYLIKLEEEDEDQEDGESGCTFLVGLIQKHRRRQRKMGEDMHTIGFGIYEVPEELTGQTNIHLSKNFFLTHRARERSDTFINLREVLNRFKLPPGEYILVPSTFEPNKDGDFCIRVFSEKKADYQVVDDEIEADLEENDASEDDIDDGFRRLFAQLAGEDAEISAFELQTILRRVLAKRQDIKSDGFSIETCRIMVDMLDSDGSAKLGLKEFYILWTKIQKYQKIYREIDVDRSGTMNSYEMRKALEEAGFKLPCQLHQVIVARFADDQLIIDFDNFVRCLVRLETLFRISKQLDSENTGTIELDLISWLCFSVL
In words: pig calpain II inhibitor potency, dose response, biochemical, fluorogenic peptide substrate (AID 1420). The class given is functional.

T3 sequence (Q8VNN2 whole entry): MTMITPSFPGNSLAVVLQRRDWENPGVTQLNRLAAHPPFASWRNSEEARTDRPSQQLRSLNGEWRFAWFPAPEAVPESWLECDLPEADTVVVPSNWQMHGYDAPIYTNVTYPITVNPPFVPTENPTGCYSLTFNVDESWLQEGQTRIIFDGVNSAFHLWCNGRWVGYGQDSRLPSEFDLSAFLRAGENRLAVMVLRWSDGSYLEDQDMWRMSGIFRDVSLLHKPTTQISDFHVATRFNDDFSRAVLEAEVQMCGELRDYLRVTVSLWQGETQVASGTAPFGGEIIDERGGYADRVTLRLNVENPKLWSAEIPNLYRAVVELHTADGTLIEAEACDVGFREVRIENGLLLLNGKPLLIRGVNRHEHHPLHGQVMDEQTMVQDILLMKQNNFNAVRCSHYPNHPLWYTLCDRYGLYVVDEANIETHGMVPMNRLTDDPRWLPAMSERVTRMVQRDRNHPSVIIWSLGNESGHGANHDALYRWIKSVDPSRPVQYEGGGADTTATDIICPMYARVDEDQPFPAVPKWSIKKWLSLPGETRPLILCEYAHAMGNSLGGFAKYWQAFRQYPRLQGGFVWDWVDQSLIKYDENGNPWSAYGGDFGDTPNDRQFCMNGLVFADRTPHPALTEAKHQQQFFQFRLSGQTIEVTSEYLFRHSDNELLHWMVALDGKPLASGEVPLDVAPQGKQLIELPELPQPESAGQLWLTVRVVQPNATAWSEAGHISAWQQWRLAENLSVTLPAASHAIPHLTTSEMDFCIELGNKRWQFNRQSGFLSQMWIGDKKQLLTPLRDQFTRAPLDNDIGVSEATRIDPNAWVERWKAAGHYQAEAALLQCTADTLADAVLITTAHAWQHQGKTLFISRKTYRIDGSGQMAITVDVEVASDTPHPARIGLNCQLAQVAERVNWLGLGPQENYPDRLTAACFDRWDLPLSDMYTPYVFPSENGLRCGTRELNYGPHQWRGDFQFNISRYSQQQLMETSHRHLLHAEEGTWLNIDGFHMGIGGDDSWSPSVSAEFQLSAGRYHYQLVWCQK
T2 sequence (P41145 whole entry): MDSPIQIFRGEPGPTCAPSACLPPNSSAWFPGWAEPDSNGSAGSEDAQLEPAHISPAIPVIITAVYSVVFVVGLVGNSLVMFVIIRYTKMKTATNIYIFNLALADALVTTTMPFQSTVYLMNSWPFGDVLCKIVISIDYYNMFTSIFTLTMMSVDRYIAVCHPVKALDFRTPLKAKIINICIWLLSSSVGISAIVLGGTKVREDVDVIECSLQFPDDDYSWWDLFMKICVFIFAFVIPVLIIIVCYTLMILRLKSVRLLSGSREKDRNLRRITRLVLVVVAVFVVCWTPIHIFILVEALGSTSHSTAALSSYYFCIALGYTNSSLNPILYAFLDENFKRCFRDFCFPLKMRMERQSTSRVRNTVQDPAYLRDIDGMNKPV

For `CN(C)S(=O)(=O)Oc1ccsc1C(=O)Nc1cccc(Cl)c1`, in [1], the IC50 (as a rule, the concentration needed to halve the response being measured) is > 50 µM (inactive). Also, the AC50 (usually the midpoint of the concentration-response curve, whichever way the signal moves) in experiment [2] is 25.1 µM (inconclusive).

For the compound `N=C1SCC(=O)N1c1ncc(Cc2ccc(F)cc2)s1`, the results for the half-maximal effective concentration (EC50) in [3], in [5] and in [7] were 0.949 µM (active), > 31.5 µM (inactive) and 2.21 µM (active), respectively. Besides, the half-maximal inhibitory concentration (IC50) in [4] is 7.35 µM (active); in [6], over 32 µM; in [8], > 66.6 µM (inactive).

Turning to `NC(=S)N/N=C/c1ncc(C(F)(F)F)cc1Cl`, the IC50 in experiment [4] was 22.2 µM (inactive); in experiment [6], over 32 µM; in experiment [9], > 119 µM (inactive); in [10], > 119 µM (inactive). Besides, the EC50 (as a rule, the concentration giving half of the maximal effect) in [5] is > 31.5 µM (inactive). Further, the AC50 in experiment [11] was 10.2 µM (active).

Regarding `COc1ccc(C2C(C(=O)Nc3ccccc3OC)=C(C)Nc3ncnn32)cc1` (stereo not drawn), in experiment [1], the IC50 is > 50 µM (inactive).

`Cc1ccsc1C(=O)NCCC(c1ccccc1)c1ccccc1`: the IC50 in [12] is 0.719 µM (not active); in experiment [1] it was > 50 µM (inactive).

Regarding `Cc1cc(C)c(C#N)c(SCc2ccc([N+](=O)[O-])cc2)n1`, the IC50 in experiment [1] is > 50 µM (inactive).
